Inhibition of growth and IC50 data for 20 molecules are collected here from ChEMBL document CHEMBL3627713, “Triazole linked mono carbonyl curcumin-isatin bifunctional hybrids as novel anti tubulin agents: Design, synthesis, biological evaluation and molecular modeling studies” (Bioorg Med Chem, 2015).

pIC50: −log10 of the molar value.

For test [1], the system named is HCT-116. In words: Cytotoxicity against human HCT116 cells assessed as growth inhibition at 50 uM after 48 hrs by sulforhodamine B assay relative to control. Format: functional. The note with it: HCT-116, 48 h, read-out: GI. A general note: Sulforhodamine B stains cellular protein and so reports cell mass.
The subject of test [2] is HCT-116. Kind of test: Cytotoxicity against human HCT116 cells assessed as growth inhibition after 48 hrs by sulforhodamine B assay. The note with it: HCT-116, 48 h. In kind it is functional, cell-based.
Test [3] concerns THP-1. In words: Cytotoxicity against human THP1 cells assessed as growth inhibition at 50 uM after 48 hrs by sulforhodamine B assay relative to control. In kind it is functional. The settings on record: THP-1, 48 h, read-out: GI.
Test [4] concerns PC-3. In words: Cytotoxicity against human PC3 cells assessed as growth inhibition at 50 uM after 48 hrs by sulforhodamine B assay relative to control. In kind it is functional. The note with it: PC-3, 48 h, read-out: GI.
For test [5], the system named is PC-3. In words: Cytotoxicity against human PC3 cells assessed as growth inhibition after 48 hrs by sulforhodamine B assay. In kind it is functional, cell-based. The note with it: PC-3, 48 h.
The test system of test [6] is COLO 205. In words: Cytotoxicity against human COLO205 cells assessed as growth inhibition after 48 hrs by sulforhodamine B assay. The note with it: COLO 205, 48 h. Format: functional, cell-based.
The subject of test [7] is THP-1. Kind of test: Cytotoxicity against human THP1 cells assessed as growth inhibition after 48 hrs by sulforhodamine B assay. Format: functional, cell-based. The note with it: THP-1, 48 h.
In a further test the test system is CAKI-1. In words: Cytotoxicity against human Caki1 cells assessed as growth inhibition at 50 uM after 48 hrs by sulforhodamine B assay relative to control. Format: functional. The note with it: CAKI-1, 48 h, read-out: GI.
The test system of test [8] is COLO 205. Kind of test: Cytotoxicity against human COLO205 cells assessed as growth inhibition at 50 uM after 48 hrs by sulforhodamine B assay relative to control. Format: functional. The note with it: COLO 205, 48 h, read-out: GI.
The next test deals with A549. In words: Cytotoxicity against human A549 cells assessed as growth inhibition at 50 uM after 48 hrs by sulforhodamine B assay relative to control. In kind it is functional. The settings on record: A549, 48 h, read-out: GI.
Test [9] is described as follows: Cytotoxicity against human MIAPaCa2 cells assessed as growth inhibition at 50 uM after 48 hrs by sulforhodamine B assay relative to control. In kind it is functional. The settings on record: MIA PaCa-2, 48 h, read-out: GI.
The subject of another test is HeLa. Kind of test: Cytotoxicity against human HeLa cells assessed as growth inhibition at 50 uM after 48 hrs by sulforhodamine B assay relative to control. Format: functional. The note with it: read-out: GI.

As a reminder, the pIC50 is the IC50 on a negative log10 scale, so that one unit is a factor of ten. As to `COc1cc(/C=C/C(=O)/C=C/c2cccs2)ccc1OCc1cn(CCN2C(=O)C(=O)c3ccccc32)nn1`, the inhibition of growth at 50 µM turned out to be 76% in the test on HCT-116 [1]; 71% in the test on THP-1 [3]; 63% with PC-3 [4]; 10% with CAKI-1; 66% in the test with COLO 205 [8]. For the same molecule, the pIC50 was 5.29 in the test with HCT-116 [2], 5.07 in the test on PC-3 [5], 5.11 in the test on COLO 205 [6] and 5.17 in the test on THP-1 [7].

With `COc1ccccc1/C=C/C(=O)/C=C/c1ccc(OCc2cn(CCN3C(=O)C(=O)c4ccccc43)nn2)c(OC)c1`, the inhibition of growth at 50 µM in the test on HCT-116 [1] came to 75%; with A549, 11%; with THP-1 [3], 70%; in test [9] it was 13%; with PC-3 [4] it was 64%; in the test on CAKI-1 it was 15%. Besides, the inhibition of growth at 50 µM turned out to be 12% in the test on HeLa and 67% with COLO 205 [8]. In addition, the pIC50 with HCT-116 [2] was 5.34; in the test on PC-3 [5], 5.05; in the test on COLO 205 [6], 5.09; in the test on THP-1 [7], 5.20.

Consider `COc1ccc(/C=C/C(=O)/C=C/c2ccc(OCc3cn(CCN4C(=O)C(=O)c5cc(Br)ccc54)nn3)c(OC)c2)cc1`, for which the inhibition of growth at 50 µM worked out at 65% with HCT-116 [1]; 60% in the test with THP-1 [3]; 10% in [9]; 57% in the test on PC-3 [4]; 10% in the test on HeLa; 59% in the test on COLO 205 [8].

On to `COc1cccc(/C=C/C(=O)/C=C/c2ccc(OCc3cn(CCN4C(=O)C(=O)c5cc(Cl)ccc54)nn3)c(OC)c2)c1`, for which the inhibition of growth at 50 µM stood at 58% in the test with HCT-116 [1]; 13% in the test on A549; 55% in the test on THP-1 [3]; 51% with PC-3 [4]; 10% in the test on HeLa; 52% with COLO 205 [8].

Consider `COc1ccc(/C=C/C(=O)/C=C/c2ccc(OCc3cn(CCN4C(=O)C(=O)c5cc(Cl)ccc54)nn3)c(OC)c2)cc1OC`, for which the inhibition of growth at 50 µM in the test on HCT-116 [1] was 79%; in the test with A549 it was 17%; in the test on THP-1 [3] it was 77%; in test [9], 12%; in the test on PC-3 [4] it was 73%; in the test on CAKI-1, 10%. Moreover, the inhibition of growth at 50 µM in the test with HeLa turned out to be 13%; in the test with COLO 205 [8] it was 75%. In addition, the pIC50 in the test with HCT-116 [2] is 5.16; in the test with PC-3 [5], 4.86; with COLO 205 [6], 4.94; with THP-1 [7], 5.03.

For the molecule `COc1cccc(/C=C/C(=O)/C=C/c2ccc(OCc3cn(CCN4C(=O)C(=O)c5ccccc54)nn3)c(OC)c2)c1`, the inhibition of growth at 50 µM with HCT-116 [1] came out at 77%; with A549, 13%; with THP-1 [3], 70%; in test [9] it was 15%; with PC-3 [4] it was 66%; in the test with CAKI-1, 17%. Besides, the inhibition of growth at 50 µM in the test on HeLa is 14%; in the test with COLO 205 [8], 69%. For the same molecule, the pIC50 was 5.41 in the test with HCT-116 [2], 5.04 in the test with PC-3 [5], 5.13 in the test with COLO 205 [6] and 5.36 in the test with THP-1 [7].

Turning to `COc1ccc(/C=C/C(=O)/C=C/c2ccc(OCc3cn(CCN4C(=O)C(=O)c5cc(Br)ccc54)nn3)c(OC)c2)cc1OC`, the inhibition of growth at 50 µM came out at 69% with HCT-116 [1]; 10% in the test on A549; 65% in the test with THP-1 [3]; 12% in [9]; 61% in the test on PC-3 [4]; 10% in the test with CAKI-1. Besides, the inhibition of growth at 50 µM with HeLa was found to be 12%; with COLO 205 [8] it was 63%.

Take `COc1cc(/C=C/C(=O)/C=C/c2cccc3ccccc23)ccc1OCc1cn(CCN2C(=O)C(=O)c3cc(Cl)ccc32)nn1`: the inhibition of growth at 50 µM in the test with HCT-116 [1] is 78%; in the test with THP-1 [3] it was 76%; in the test on PC-3 [4], 71%; in the test on COLO 205 [8], 74%. For the same molecule, the pIC50 with HCT-116 [2] was 5.03; in the test with PC-3 [5], 4.85; with COLO 205 [6] it was 4.87; with THP-1 [7] it was 4.95.

On to `COc1cc(/C=C/C(=O)/C=C/c2ccccc2)ccc1OCc1cn(CCN2C(=O)C(=O)c3cc(Cl)ccc32)nn1`, for which the inhibition of growth at 50 µM with HCT-116 [1] came out at 68%; in the test on A549, 21%; with THP-1 [3] it was 65%; in [9] it was 13%; with PC-3 [4], 58%; in the test with CAKI-1, 13%. In addition, the inhibition of growth at 50 µM in the test on HeLa was determined as 14%; in the test on COLO 205 [8] it was 63%.

As for `COc1ccccc1/C=C/C(=O)/C=C/c1ccc(OCc2cn(CCN3C(=O)C(=O)c4cc(Cl)ccc43)nn2)c(OC)c1`, the inhibition of growth at 50 µM in the test on HCT-116 [1] turned out to be 50%; with A549 it was 11%; in the test with THP-1 [3], 43%; with PC-3 [4] it was 42%; with COLO 205 [8], 47%.

`COc1cc(/C=C/C(=O)/C=C/c2cccc([N+](=O)[O-])c2)ccc1OCc1cn(CCN2C(=O)C(=O)c3ccccc32)nn1`: the inhibition of growth at 50 µM in the test on HCT-116 [1] amounted to 25%; in the test with THP-1 [3], 24%; in the test with PC-3 [4] it was 20%; with COLO 205 [8] it was 22%.

As to `COc1cc(/C=C/C(=O)/C=C/c2cccc(Br)c2)ccc1OCc1cn(CCN2C(=O)C(=O)c3cc(Br)ccc32)nn1`, the inhibition of growth at 50 µM in the test on HCT-116 [1] was 13%; in the test on THP-1 [3] it was 12%; in the test on PC-3 [4], 13%; with COLO 205 [8], 11%.

In the case of `COc1ccc(/C=C/C(=O)/C=C/c2ccc(OCc3cn(CCN4C(=O)C(=O)c5cc(Cl)ccc54)nn3)c(OC)c2)cc1`, the inhibition of growth at 50 µM in the test on HCT-116 [1] worked out at 66%; in the test on A549, 15%; in the test with THP-1 [3], 64%; in [9], 10%; in the test with PC-3 [4], 60%; in the test with HeLa it was 12%. For the same molecule, the inhibition of growth at 50 µM with COLO 205 [8] amounted to 63%. Besides, the pIC50 in the test on HCT-116 [2] was 5.11; in the test on PC-3 [5] it was 4.90; in the test with COLO 205 [6], 4.96; in the test with THP-1 [7], 5.01.

As to `COc1cc(/C=C/C(=O)/C=C/c2cccc3ccccc23)ccc1OCc1cn(CCN2C(=O)C(=O)c3cc(Br)ccc32)nn1`, the inhibition of growth at 50 µM in the test with HCT-116 [1] is 44%; in the test on THP-1 [3] it was 40%; with PC-3 [4], 37%; in the test with COLO 205 [8] it was 40%.

In the case of `COc1cc(/C=C/C(=O)/C=C/c2ccccc2)ccc1OCc1cn(CCN2C(=O)C(=O)c3cc(Br)ccc32)nn1`, the inhibition of growth at 50 µM in the test with HCT-116 [1] worked out at 56%; with A549 it was 11%; in the test with THP-1 [3] it was 54%; in test [9] it was 16%; in the test on PC-3 [4], 50%; in the test with CAKI-1 it was 12%. Further, the inhibition of growth at 50 µM in the test on HeLa was 14%; in the test with COLO 205 [8], 51%.

Regarding `COc1cc(/C=C/C(=O)/C=C/c2ccco2)ccc1OCc1cn(CCN2C(=O)C(=O)c3ccccc32)nn1`, the inhibition of growth at 50 µM worked out at 78% in the test with HCT-116 [1]; 72% with THP-1 [3]; 10% in test [9]; 65% in the test on PC-3 [4]; 12% in the test on CAKI-1; 68% in the test with COLO 205 [8]. For the same molecule, the pIC50 in the test with HCT-116 [2] was 5.34; in the test with PC-3 [5], 5.08; in the test on COLO 205 [6], 5.12; in the test with THP-1 [7], 5.18.

Consider `COc1cc(/C=C/C(=O)/C=C/c2ccc(Cl)cc2)ccc1OCc1cn(CCN2C(=O)C(=O)c3cc(Br)ccc32)nn1`, for which the inhibition of growth at 50 µM is 29% in the test on HCT-116 [1], 25% in the test on THP-1 [3], 23% with PC-3 [4] and 24% with COLO 205 [8].

Regarding `COc1cc(/C=C/C(=O)/C=C/c2cccc(Br)c2)ccc1OCc1cn(CCN2C(=O)C(=O)c3ccccc32)nn1`, the inhibition of growth at 50 µM with HCT-116 [1] stood at 42%; in the test on THP-1 [3] it was 40%; in the test on PC-3 [4], 35%; with COLO 205 [8] it was 36%.

In the case of `COc1cccc(/C=C/C(=O)/C=C/c2ccc(OCc3cn(CCN4C(=O)C(=O)c5cc(Br)ccc54)nn3)c(OC)c2)c1`, the inhibition of growth at 50 µM is 57% with HCT-116 [1], 54% with THP-1 [3], 51% in the test on PC-3 [4] and 56% in the test on COLO 205 [8].

As to `COc1cc(/C=C/C(=O)/C=C/c2cccc(Br)c2)ccc1OCc1cn(CCN2C(=O)C(=O)c3cc(Cl)ccc32)nn1`, the inhibition of growth at 50 µM with HCT-116 [1] amounted to 19%; in the test on THP-1 [3] it was 12%; in the test on PC-3 [4] it was 14%; in the test on COLO 205 [8] it was 10%.
